Biological target: endogenous wild-type p53 protein (Homo sapiens, UniProt P04637)
Test: Western blot of endogenous wild-type p53 protein degradation (knockdown) in HCT116 cells
Type: cell-based
Set-up: degradation (knockdown) of an endogenous wild-type p53 protein and MDM2 protein in HCT116 cells; endogenous in cells; host or cells: HCT116
Conditions: 48 hours after addition, vs DMSO control
Description: In Example 2, degradation (knockdown) of an endogenous wild-type p53 protein and MDM2 protein in HCT116 cells (human large intestinal cancer cells) to which TIBC-CANDDY_MLN had been added was evaluated by Western blot analysis.
HCT116 cells were seeded in a 24-well plate at a cell density of 8×10^4 cells/well, and then cultured under conditions of 37° C. and 5 vol % CO2 for 16 hours.
After 16 hours from cell seeding, TIBC-CANDDY_MLN or TIBC was added to HCT116 cells as follows. As a medium, a serum-free medium (37° C.) in which 1 mass % L-glutamine solution (Sigma-Aldrich) was added to D-MEM (high D-glucose, phenol red, sodium pyruvate (Wako Pure Chemical Industries, Ltd.)) was used. It is noted that the L-glutamine solution was added immediately before use. […]
After electrophoresis, proteins were transferred to a PVDF membrane (Immobion™-P, Millipore) under conditions of 100 V and 2 hours using a tank-type blotting device and a transfer buffer (25 mM Tris-HCl, 195 mM glycine, 0.01% SDS, 15% methanol). […] Subsequently, the membrane was treated with a chemiluminescence reagent Immobilon™ Western (Millipore), and then chemiluminescence was detected using a lumino image analyzer LAS-3000 (FUJIFILM Corporation).

endogenous wild-type p53 protein, sequence (P04637 whole entry): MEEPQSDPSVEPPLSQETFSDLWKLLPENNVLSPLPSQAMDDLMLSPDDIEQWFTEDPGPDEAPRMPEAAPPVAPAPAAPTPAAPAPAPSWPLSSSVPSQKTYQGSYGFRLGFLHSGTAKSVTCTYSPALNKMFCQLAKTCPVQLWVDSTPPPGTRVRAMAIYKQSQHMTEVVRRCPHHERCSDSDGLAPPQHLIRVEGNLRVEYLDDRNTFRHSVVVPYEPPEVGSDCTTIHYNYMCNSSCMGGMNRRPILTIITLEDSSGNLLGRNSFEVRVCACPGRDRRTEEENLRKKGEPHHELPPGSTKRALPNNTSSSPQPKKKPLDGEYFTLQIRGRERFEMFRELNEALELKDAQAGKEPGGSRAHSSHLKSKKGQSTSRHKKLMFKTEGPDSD

CC(C)C[C@H](NC(=O)CNC(=O)c1cc(Cl)ccc1Cl)C(=O)NCCCCCCC(=O)Nc1ccc(C(=O)/C=C/c2ccc(I)cc2)cc1 [TIBC-CANDDY_MLN]
amount of the endogenous wild-type p53 protein (Western blot): reduced

— patent publication US11007269B2, “P53 degradation inducing molecule and pharmaceutical composition” (Tokyo University of Science Foundation, priority 2016, dated 2021)
